# According to publication PMC7503225, “Repositioning Dequalinium as Potent Muscarinic Allosteric Ligand by Combining Virtual Screening Campaigns and Experimental Binding Assays” (International Journal of Molecular Sciences, 2020):
# Read-outs that look alike come from different tables or passages of the source.
# Tests used:
# [1] = target: T1, hM5 muscarinic receptor (Homo sapiens, UniProt P08912); experiment: Equilibrium inhibition binding with [3H]-NMS, CHO cell membranes
# T1 construct: expressed in transfected cells; host or cells: CHO cells, stably transfected; membrane fractions
# T1 sequence (P08912 1-532): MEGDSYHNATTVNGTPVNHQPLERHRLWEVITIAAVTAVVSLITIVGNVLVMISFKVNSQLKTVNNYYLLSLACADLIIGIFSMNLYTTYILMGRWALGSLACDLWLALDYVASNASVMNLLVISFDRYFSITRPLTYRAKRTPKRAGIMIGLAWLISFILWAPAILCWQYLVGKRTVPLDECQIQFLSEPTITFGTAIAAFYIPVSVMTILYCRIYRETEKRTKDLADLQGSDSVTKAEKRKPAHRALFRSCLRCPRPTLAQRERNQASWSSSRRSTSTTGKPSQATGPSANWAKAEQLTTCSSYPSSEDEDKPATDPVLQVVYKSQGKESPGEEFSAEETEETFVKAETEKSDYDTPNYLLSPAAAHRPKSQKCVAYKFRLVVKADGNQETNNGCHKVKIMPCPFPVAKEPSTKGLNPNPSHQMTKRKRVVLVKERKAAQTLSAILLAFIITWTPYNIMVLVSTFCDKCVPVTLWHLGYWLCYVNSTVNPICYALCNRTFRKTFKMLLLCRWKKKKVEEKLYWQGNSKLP
# Protocol: (§1) All tested compounds were purchased from Merck KGaA (Darmstadt, Germany). The radioligand binding experiments were performed with membranes from Chinese Hamster Ovary (CHO) cells stably transfected with the five cloned human muscarinic receptor subtypes (hM1-5). Membrane fractions were prepared according to the protocol, which have been previously described; membranes were stored at −80 °C until use. Nonspecific binding was defined by the radioactivity bound in the presence of 10 µM atropine.
# (§2) Aliquots of membranes (25–70 µg/mL) were added and incubated for 2 h at room temperature, filtered through UniFilter GF/B plates (PerkinElmer Life and Analytical Science, Monza, Italy) using a FilterMate cell harvester (PerkinElmer Life and Analytical Science, Monza, Italy). The filters were washed several times with ice-cold MilliQ water. Then, the plates were counted in a β-counter (TopCount NXT microplate scintillation counter, PerkinElmer Life and Analytical Science, Monza, Italy).
# (§3) Data points from radioligand inhibition binding curve were fitted to models using nonlinear regression equation to determine inhibitor potency (IC50) estimates, which were then converted to Ki values as appropriate.
# (§4) All the results are expressed as means ± SEM obtained from 3-4 independent experiments each one performed in duplicate.
# [2] = target: T2, hM4 muscarinic receptor (Homo sapiens, UniProt P08173); experiment: as above
# T2 construct: expressed in transfected cells; host or cells: CHO cells, stably transfected; membrane fractions
# T2 sequence (P08173 1-479): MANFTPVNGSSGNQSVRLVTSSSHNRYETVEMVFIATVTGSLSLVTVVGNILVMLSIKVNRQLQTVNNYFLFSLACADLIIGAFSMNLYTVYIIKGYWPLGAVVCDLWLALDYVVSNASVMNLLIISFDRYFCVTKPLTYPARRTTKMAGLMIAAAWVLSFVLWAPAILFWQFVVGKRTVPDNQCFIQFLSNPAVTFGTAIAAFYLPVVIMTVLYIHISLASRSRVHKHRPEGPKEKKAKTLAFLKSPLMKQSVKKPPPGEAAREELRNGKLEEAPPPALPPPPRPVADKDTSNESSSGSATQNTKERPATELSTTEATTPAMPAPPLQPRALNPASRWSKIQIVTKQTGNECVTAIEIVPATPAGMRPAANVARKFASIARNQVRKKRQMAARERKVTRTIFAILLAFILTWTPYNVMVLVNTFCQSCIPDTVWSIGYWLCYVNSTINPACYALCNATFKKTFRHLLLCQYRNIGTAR
# Protocol: as §1, §2, §3, §4
# [3] = ref DrugBank [16]; cited from earlier work
# [4] = target: T3, [3H]-NMS-occupied muscarinic hM2 subtype (Homo sapiens, UniProt P08172); experiment: One point kinetic (off-rate) assay of [3H]-NMS dissociation; assay type: binding
# T3 construct: expressed in transfected cells; host or cells: CHO cells, stably transfected; membrane fractions
# T3 sequence (P08172 1-466): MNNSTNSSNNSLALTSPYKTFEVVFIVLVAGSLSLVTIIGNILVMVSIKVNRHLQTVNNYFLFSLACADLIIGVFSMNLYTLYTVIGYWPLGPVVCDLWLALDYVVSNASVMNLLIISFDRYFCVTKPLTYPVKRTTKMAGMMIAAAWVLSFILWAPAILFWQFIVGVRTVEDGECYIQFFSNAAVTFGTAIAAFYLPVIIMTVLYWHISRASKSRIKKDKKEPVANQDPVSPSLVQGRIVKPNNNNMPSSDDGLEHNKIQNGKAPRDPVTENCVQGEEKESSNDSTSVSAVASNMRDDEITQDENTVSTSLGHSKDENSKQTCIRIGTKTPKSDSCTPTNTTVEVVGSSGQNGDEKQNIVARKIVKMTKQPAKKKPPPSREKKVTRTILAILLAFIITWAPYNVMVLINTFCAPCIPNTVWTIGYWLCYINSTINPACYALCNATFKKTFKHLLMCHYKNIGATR
# Protocol: as §1
# Off-rate assays were performed as described elsewhere to estimate the affinity of the ligands for the [^3H]-NMS-occupied receptor (log Kocc). Briefly, a high concentration of membranes (about 0.1 mg/mL) was incubated with a high concentration of [^3H]-NMS (2 nM) for 60 min at room temperature (mix membrane). Next, 100 µL aliquots were distributed into polypropylene tubes that were empty or in a final volume of 1 mL binding buffer with 1 µM atropine alone and in the presence of a range of concentrations of tested compound (1 nM–0.1 mM).
# The effect on the radioligand dissociation of each tested ligand was determined at 0 min and at one time point, which was chosen to be ca 2.5 dissociation half-lives of [^3H]-NMS alone from each subtype receptors. Later (80 min for hM1, 20 min for hM2 and 70 min for hM5), the samples were filtered and counted as previously reported. Non specific binding was measured as previously reported.
# as §4
# [5] = target: T4, hM1 muscarinic receptor (Homo sapiens, UniProt P11229); experiment: Equilibrium inhibition binding with [3H]-NMS, CHO cell membranes; conditions: [3H]-NMS 0.2 nM, mean ± SEM of 3-4 experiments, read-out: pKi hM1 (converted)
# T4 construct: expressed in transfected cells; host or cells: CHO cells, stably transfected; membrane fractions
# T4 sequence (P11229 1-460): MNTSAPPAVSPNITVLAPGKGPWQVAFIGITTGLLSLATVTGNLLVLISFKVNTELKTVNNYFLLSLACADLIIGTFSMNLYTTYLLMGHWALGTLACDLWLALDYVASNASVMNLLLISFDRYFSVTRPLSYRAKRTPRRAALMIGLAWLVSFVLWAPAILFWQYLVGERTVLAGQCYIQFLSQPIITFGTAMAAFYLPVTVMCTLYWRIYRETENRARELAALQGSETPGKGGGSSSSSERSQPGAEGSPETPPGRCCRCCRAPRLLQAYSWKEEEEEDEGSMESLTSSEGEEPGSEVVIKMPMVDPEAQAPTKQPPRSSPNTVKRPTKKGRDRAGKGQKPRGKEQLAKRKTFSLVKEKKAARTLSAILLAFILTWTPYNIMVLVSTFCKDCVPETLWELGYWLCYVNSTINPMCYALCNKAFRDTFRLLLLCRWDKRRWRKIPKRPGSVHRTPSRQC
# Protocol: as §1, §2, §3, §4
# [6] = target: T5, hM2 muscarinic receptor (Homo sapiens, UniProt P08172); experiment: as above; conditions: [3H]-NMS 0.2 nM, mean ± SEM of 3-4 experiments, read-out: pKi hM2 (converted)
# T5 construct: expressed in transfected cells; host or cells: CHO cells, stably transfected; membrane fractions
# T5 sequence (P08172 1-466): T3 sequence (P08172 1-466)
# Protocol: as §1, §2, §3, §4
# [7] = target: T6, hM3 muscarinic receptor (Homo sapiens, UniProt P20309); experiment: as above; conditions: [3H]-NMS 0.2 nM, mean ± SEM of 3-4 experiments, read-out: pKi hM3 (converted)
# T6 construct: expressed in transfected cells; host or cells: CHO cells, stably transfected; membrane fractions
# T6 sequence (P20309 whole entry): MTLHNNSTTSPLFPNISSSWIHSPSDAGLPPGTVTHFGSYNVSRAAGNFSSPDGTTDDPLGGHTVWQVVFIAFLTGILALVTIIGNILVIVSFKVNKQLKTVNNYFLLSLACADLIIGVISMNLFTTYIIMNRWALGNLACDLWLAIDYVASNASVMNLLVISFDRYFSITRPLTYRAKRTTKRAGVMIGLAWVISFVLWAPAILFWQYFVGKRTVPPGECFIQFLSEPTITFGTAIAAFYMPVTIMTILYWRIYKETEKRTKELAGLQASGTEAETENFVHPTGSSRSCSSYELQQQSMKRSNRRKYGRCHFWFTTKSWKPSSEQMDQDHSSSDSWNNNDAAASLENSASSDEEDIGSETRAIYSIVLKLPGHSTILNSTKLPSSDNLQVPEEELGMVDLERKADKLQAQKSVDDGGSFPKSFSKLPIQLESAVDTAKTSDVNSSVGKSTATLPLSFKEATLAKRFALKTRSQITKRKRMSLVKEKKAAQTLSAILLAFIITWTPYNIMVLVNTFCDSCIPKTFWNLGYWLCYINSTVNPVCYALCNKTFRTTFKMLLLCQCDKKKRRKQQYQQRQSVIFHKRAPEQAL
# Protocol: as §1, §2, §3, §4
# [8] = [3H]-NMS 0.2 nM, CHO membranes, mean ± SEM of 3-4 experiments, read-out: pKi hM5 (converted)
# [9] = [3H]-NMS 0.2 nM, CHO membranes, mean ± SEM of 3-4 experiments, read-out: pKi hM4 (converted)
smiles,measurement,setting,value
CC(=O)N1CCN(c2ccc(OCC3COC(Cn4ccnc4)(c4ccc(Cl)cc4Cl)O3)cc2)CC1 (stereo not drawn) [ketoconazole],Ki,[1]; [8],7.94 µM
same,Ki,[2]; [9],4.57 µM
CS(=O)(=O)CCNCc1ccc(-c2ccc3ncnc(Nc4ccc(OCc5cccc(F)c5)c(Cl)c4)c3c2)o1 [lapatinib],logP,[3],5.2
CC(C)OC(=O)CCC/C=C\C[C@@H]1[C@@H](CC[C@@H](O)CCc2ccccc2)[C@H](O)C[C@@H]1O [latanoprost],logP,[3],4.2
C/C(=C\C(=O)OCCCCCCCCC(=O)O)C[C@@H]1OC[C@H](C[C@@H]2O[C@H]2[C@@H](C)[C@H](C)O)[C@@H](O)[C@H]1O [mupirocin],logP,[3],2.2
CCCCCCCCCCC[C@@H](C[C@@H]1OC(=O)[C@H]1CCCCCC)OC(=O)[C@H](CC(C)C)NC=O [orlistat],logP,[3],7.5
same,Log Kocc hM2,"[4]; Table 4, affinity estimate at [3H]-NMS-occupied receptor, one time point 20 min, mean ± SEM",completely inactive
same,Kd,[4]; read-out: Log Kocc hM2 (converted),> 1000 µM
same,Ki,[5],> 100 µM
same,Ki,[1]; [8],> 100 µM
same,Ki,[2]; [9],> 100 µM
same,Ki,[6],> 100 µM
same,Ki,[7],> 100 µM
C[n+]1ccc(-c2cc[n+](C)cc2)cc1 [paraquat],Ki,[1],14.8 µM
same,Ki,[2],> 100 µM
same,Ki,[6],23.4 µM
CC1=C(C/C=C(\C)CCC[C@H](C)CCC[C@H](C)CCCC(C)C)C(=O)c2ccccc2C1=O [phytonadione],logP,[3],9.3
O=c1[nH]c2ccccc2n1C1CCN(CCCC(c2ccc(F)cc2)c2ccc(F)cc2)CC1 [pimozide],logP,[3],6.3
OCc1cc(C(O)CNCCCCCCOCCCCc2ccccc2)ccc1O (stereo not drawn) [salmeterol],logP,[3],3.8
same,Ki,[5],3.24 µM
same,Ki,[1]; [8],12.6 µM
same,Ki,[2]; [9],9.77 µM
same,Ki,[7],12 µM
C[C@H](Cc1cc2c(c(C(N)=O)c1)N(CCCO)CC2)NCCOc1ccccc1OCC(F)(F)F [silodosin],logP,[3],3.0
CC(C)N1CCN(c2ccc(OCC3COC(Cn4cncn4)(c4ccc(Cl)cc4Cl)O3)cc2)CC1 (stereo not drawn) [terconazole],logP,[3],4.5
CC(C)(C)c1ccc(C(O)CCCN2CCC(C(O)(c3ccccc3)c3ccccc3)CC2)cc1 (stereo not drawn) [terfenadine],logP,[3],5.9
same,Ki,[2]; [9],11 µM
CC(C)OC(=O)CCC/C=C\C[C@@H]1[C@@H](/C=C/[C@@H](O)COc2cccc(C(F)(F)F)c2)[C@H](O)C[C@@H]1O [travoprost],logP,[3],4.6
N#Cc1ccc2[nH]cc(CCCCN3CCN(c4ccc5oc(C(N)=O)cc5c4)CC3)c2c1 [vilazodone],logP,[3],4.2
CCOC(=O)CN[C@@H](C(=O)N1CC[C@H]1C(=O)NCc1ccc(/C(N)=N\O)cc1)C1CCCCC1 [ximelagatran],logP,[3],1.4
